Read-outs that look alike come from different tables or passages of the source.
Columns and labels:
Assay in all cases: Determination of MIC values (BHI broth, 96 well microtiter plate)
Format in all cases: cell-based
Streptococcus pneumoniae = conditions: BHI broth; for MIC: Streptococcus pneumoniae, read-out: MIC S. pneu
Summary of the method: (§1)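 BHI broth microdilution; final compound 25, 12.5, 6.25, 3.125, 1.56, 0.78, 0.39, 0 µg/mL (1% DMSO). Inoculum 10^5–10^6 cells/mL; 37° C, ~7-10% CO2, ~16 h. MIC = lowest concentration, no observable growth.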

[1] = tested on: methicillin-resistant Staphylococcus aureus (MRSA); conditions: BHI broth; for MIC: Staphylococcus aureus, MRSA, read-out: MIC MRSA
Summary of the method: as §1

[2] = tested on: vancomycin-resistant Enterococcus spp. (VRE); conditions: BHI broth; for MIC: Enterococcus, VRE, read-out: MIC VREF
Summary of the method: as §1

[3] = 37° C., overnight (about 16 hours)
[4] = 16 h, 37° C., overnight (about 16 hours)

| SMILES | MIC (Streptococcus pneumoniae; 37° C., about 16 hours) [µg/mL] | MIC ([1]; 16 h, 37° C., about 16 hours) [µg/mL] | MIC ([2]; 16 h, 37° C., about 16 hours) [µg/mL] | MIC (Streptococcus pneumoniae; S. pneu, overnight 37° C.) [µg/mL] | MIC ([1]; overnight 37° C.) [µg/mL] | MIC ([2]; VREF, overnight 37° C.) [µg/mL] | further results |
| --- | --- | --- | --- | --- | --- | --- | --- |
| NCc1cccc(CNC(=O)c2cc(-c3c[nH]c4ccc(Br)cc34)nc3ccc(Cl)cc23)c1 [Example 134] | – | – | – | – | – | – | MIC (Streptococcus pneumoniae; [3]): < 7 µg/mL; MIC [1, 4]: < 7 µg/mL; MIC [2, 4]: < 7 µg/mL |
| COc1ccc2[nH]cc(-c3cc(Cl)c4ccc(Cl)cc4n3)c2c1 [Example 464] | < 7 | < 7 | > 25 | – | – | – | – |
| NCc1ccc(CNC(=O)c2cc(-c3c[nH]c4ccc(Br)cc34)nc3c(F)cccc23)cc1 [Example 256] | – | – | – | < 7 | < 7 | < 7 | – |
| OCc1cc(-c2c[nH]c3ccc(Br)cc23)nc2cc(F)ccc12 [Example 446] | < 7 | < 7 | – | – | – | – | MIC VREF ([2]; 37° C., about 16 hours): <7 µg/mL |
| Fc1ccc2[nH]cc(-c3ccc4cc(Cl)ccc4n3)c2c1 [Example 191] | – | – | – | – | – | – | MIC (Streptococcus pneumoniae; [3]): < 7 µg/mL; MIC [1, 4]: < 7 µg/mL; MIC [2, 4]: < 25 µg/mL |
| NCCNC(=O)c1cc(-c2c[nH]c3ccc(Br)cc23)nc2ccc(C#CCN3CC=CCC3)cc12 [Example 526] | < 7 | < 7 | < 7 | – | – | – | – |
| NCc1cccc(CNC(=O)c2cc(-c3c[nH]c4ccc(Br)cc34)nc3cc(Br)ccc23)n1 [Example 334] | – | – | – | < 7 | < 7 | < 7 | – |
| Cc1ccc2nc(-c3c[nH]c4ccc(OCc5ccccc5)cc34)ccc2c1 [Example 469] | < 7 | < 7 | > 25 | – | – | – | – |
| COc1ccc2nc(-c3c(C)[nH]c4ccc(Cl)cc34)ccc2c1 [Example 429] | < 7 | < 7 | > 25 | – | – | – | – |
| OCc1cc(-c2c[nH]c3ccc(Br)cc23)nc2cc(Cl)ccc12 [Example 492] | – | – | – | – | – | – | MIC S. pneu (Streptococcus pneumoniae; 37° C., about 16 hours): < 7 µg/mL; MIC MRSA ([1]; 37° C., about 16 hours): < 7 µg/mL; MIC VREF ([2]; 37° C., about 16 hours): <25 µg/mL |
| NCc1ccc(CNC(=O)c2cc(-c3c[nH]c4ccc(Br)cc34)nc3ccc(I)cc23)cc1 [compound 53] | – | – | – | – | – | – | MIC (Streptococcus pneumoniae; [3]): < 7 µg/mL; MIC [1, 4]: < 7 µg/mL; MIC [2, 4]: < 7 µg/mL |
| COc1ccc2nc(-c3c[nH]c4cc(Cl)ccc34)ccc2c1 [Example 414] | > 25 | > 25 | > 25 | – | – | – | – |
| Clc1ccc2nc(-c3c[nH]c4ccc(Cl)cc34)ccc2c1 [Example 287] | – | – | – | < 7 | < 7 | > 25 | – |
| NC1CCC(NC(=O)c2cc(-c3c[nH]c4ccc(Br)cc34)nc3ccc(Cl)cc23)CC1 (stereo not drawn) [Example 131] | – | – | – | – | – | – | MIC (Streptococcus pneumoniae; [3]): < 7 µg/mL; MIC [1, 4]: < 7 µg/mL; MIC [2, 4]: < 25 µg/mL |
| Fc1ccc2[nH]cc(-c3ccc4ccccc4n3)c2c1 [Example 181] | – | – | – | – | – | – | MIC (Streptococcus pneumoniae; [3]): < 7 µg/mL; MIC [1, 4]: < 7 µg/mL; MIC [2, 4]: < 25 µg/mL |
| NCC1CCCC(CNC(=O)c2cc(-c3c[nH]c4ccc(Br)cc34)nc3cc(Cl)c(I)cc23)C1 (stereo not drawn) [Example 245] | – | – | – | < 7 | < 7 | < 7 | – |

| SMILES | MIC (Streptococcus pneumoniae; 37° C., about 16 hours) [µg/mL] | MIC ([1]; 16 h, 37° C., about 16 hours) [µg/mL] | MIC ([2]; 16 h, 37° C., about 16 hours) [µg/mL] | MIC (Streptococcus pneumoniae; S. pneu, overnight 37° C.) [µg/mL] | MIC ([1]; overnight 37° C.) [µg/mL] | MIC ([2]; VREF, overnight 37° C.) [µg/mL] | further results |
| --- | --- | --- | --- | --- | --- | --- | --- |
| OCc1cc(-c2c[nH]c3ccc(Br)cc23)nc2ccc(I)cc12 [Example 452] | < 7 | < 7 | > 25 | – | – | – | – |
| COc1ccc2[nH]cc(-c3cc(Cl)c4ccccc4n3)c2c1 [Example 348] | – | – | – | < 7 | < 7 | > 25 | – |
| Clc1ccc2nc(-c3c[nH]c4ccccc34)ccc2c1 [Example 164] | – | – | – | – | – | – | MIC (Streptococcus pneumoniae; [3]): < 7 µg/mL; MIC [1, 4]: < 7 µg/mL; MIC [2, 4]: < 5 µg/mL |
| COC(=O)c1cc(-c2c[nH]c3ccc(Br)cc23)nc2cc(F)ccc12 [Example 486] | < 7 | < 7 | < 7 | – | – | – | – |
| NCc1cccc(CNC(=O)c2cc(-c3c[nH]c4ccc(Br)cc34)nc3c(Cl)c(Cl)ccc23)c1 [Example 276] | – | – | – | > 25 | < 7 | < 7 | – |
| NCc1ccc(CNC(=O)c2cc(-c3c[nH]c4ccc(Br)cc34)nc3c(C#CCN4CCCCC4)cccc23)cc1 [Example 263] | – | – | – | < 7 | < 25 | < 25 | – |
| CC(C)(C)OC(=O)n1cc(/C=N/c2cccc(Cl)c2)c2cc(Br)ccc21 [Example 381] | – | – | – | > 25 | > 25 | > 25 | – |
| NCc1ccc(CNC(=O)c2cc(-c3c[nH]c4ccc(Br)cc34)nc3cc(Cl)ccc23)cc1 [Example 142] | – | – | – | – | – | – | MIC (Streptococcus pneumoniae; [3]): < 7 µg/mL; MIC [1, 4]: < 7 µg/mL; MIC [2, 4]: < 7 µg/mL |
| COc1ccc(NC(=O)c2cc(-c3c[nH]c4ccc(Br)cc34)nc3ccccc23)cc1 [Example 48] | – | – | – | – | – | – | MIC (Streptococcus pneumoniae; [3]): < 7 µg/mL; MIC [1, 4]: < 7 µg/mL; MIC [2, 4]: > 25 µg/mL |
| O=C(O)c1cc(-c2c[nH]c3ccc(Br)cc23)nc2cc(Cl)c(C#CCN3CCCCC3)cc12 [Example 516] | < 7 | < 7 | < 25 | – | – | – | – |
| Brc1ccc2[nH]cc(-c3nc4ccc(I)cc4c4c3CCO4)c2c1 [Example 303] | – | – | – | < 7 | < 7 | > 25 | – |
| COc1ccc2[nH]cc(-c3ccc4cc(Cl)ccc4n3)c2c1 [Example 290] | – | – | – | > 25 | > 25 | > 25 | – |
| Fc1ccc2c(-c3ccc4cc(Cl)ccc4n3)c[nH]c2c1 [Example 288] | – | – | – | < 7 | < 7 | < 7 | – |
| Cn1cc(-c2cc(C(=O)NCC3CCCC(CN)C3)c3cc(Cl)ccc3n2)c2cc(Br)ccc21 (stereo not drawn) [Example 369] | – | – | – | < 7 | < 7 | < 7 | – |
| NCCNC(=O)c1cc(-c2c[nH]c3ccc(Br)cc23)nc2cc(Cl)c(C#CCNCCc3ccccc3)cc12 [Example 530] | < 7 | < 7 | < 7 | – | – | – | – |
| Fc1ccc2c(CCl)cc(-c3c[nH]c4ccc(Br)cc34)nc2c1 [Example 508] | < 7 | < 7 | < 7 | – | – | – | – |

More lines, main results first:

| MIC (Streptococcus pneumoniae; 37° C., about 16 hours) [µg/mL] | MIC ([1]; 16 h, 37° C., about 16 hours) [µg/mL] | MIC ([2]; 16 h, 37° C., about 16 hours) [µg/mL] | MIC (Streptococcus pneumoniae; S. pneu, overnight 37° C.) [µg/mL] | MIC ([1]; overnight 37° C.) [µg/mL] | MIC ([2]; VREF, overnight 37° C.) [µg/mL] | SMILES | further results |
| --- | --- | --- | --- | --- | --- | --- | --- |
| < 7 | < 7 | < 7 | – | – | – | CNCCN(C)C(=O)c1cc(-c2c[nH]c3ccc(Br)cc23)nc2cc(Cl)c(C#CCN3CCCCC3)cc12 [Example 513] | – |
| – | – | – | < 7 | < 7 | < 7 | NCc1ccc(CNC(=O)c2cc(-c3c[nH]c4ccc(Br)cc34)nc3ccc(C#CCNCCc4ccccc4)cc23)cc1 [Example 223] | – |
| – | < 7 | > 25 | – | – | – | Clc1ccc2nc(-c3c[nH]c4ccc(Cl)cc34)ccc2c1 [Example 484] | MIC S. pneu (Streptococcus pneumoniae; 37° C., about 16 hours): < 7 µg/mL |
| – | – | – | < 7 | < 7 | > 25 | Clc1ccc2nc(-c3c[nH]c4ccc(OCc5ccccc5)cc34)ccc2c1 [Example 289] | – |
| – | – | – | < 7 | < 25 | < 25 | Cc1cccc2c(-c3ccc4cc(Cl)ccc4n3)cn(C)c12 [Example 217] | – |
| – | – | – | < 7 | < 7 | < 7 | NCc1ccc(CNC(=O)c2cc(-c3c[nH]c4ccc(Br)cc34)nc3cc(C#CCN4CCCCC4)ccc23)cc1 [Example 262] | – |
| < 7 | < 7 | > 25 | – | – | – | COc1ccc(NC(=O)NCc2cc(-c3c[nH]c4ccc(Br)cc34)nc3cc(Cl)ccc23)cc1 [Example 514] | – |
| < 25 | < 25 | < 25 | – | – | – | NCc1ccc(CNC(=O)c2cc(-c3c[nH]c4cc(F)ccc34)nc3cc(F)ccc23)cc1 [Example 493] | – |
| – | – | – | < 7 | < 7 | < 7 | NCc1ccc(CNC(=O)c2cc(-c3c[nH]c4ccc(Cl)cc34)nc3ccc(I)cc23)cc1 [Example 224] | – |
| – | – | – | < 25 | < 25 | > 25 | Cn1cc(-c2cc(C(=O)O)c3ccc(F)cc3n2)c2cc(Br)ccc21 [Example 310] | – |
| – | – | – | < 25 | < 7 | < 25 | NCc1ccc(CNC(=O)c2cc(-c3c[nH]c4ccc(Br)cc34)nc3ccc(C#CCN4CCNCC4)cc23)cc1 [Example 208] | – |
| – | – | – | < 7 | < 7 | < 7 | Brc1ccc2[nH]cc(-c3ccc4cc(I)ccc4n3)c2c1 [Example 363] | – |
| – | – | – | < 25 | < 7 | < 25 | NCc1ccc(CNC(=O)c2cc(-c3c[nH]c4ccc(Br)cc34)nc3c(C#CCNCCc4ccc(Cl)cc4)cccc23)cc1 [Example 301] | – |
| – | – | – | > 25 | > 25 | > 25 | O=C(O)c1cc(-c2c[nH]c3ccc(Br)cc23)nc2ccc(C#CCN3CCCC3)cc12 [Example 234] | – |
| < 7 | < 7 | < 7 | – | – | – | CN(C)CCN(C)C(=O)c1cc(-c2c[nH]c3ccc(Br)cc23)nc2cc(Cl)ccc12 [Example 505] | – |
| – | – | – | < 7 | < 7 | > 25 | COc1ccc(NC(=O)CCc2cc(-c3c[nH]c4ccc(Br)cc34)nc3ccc(C#CCN4CCCCC4)cc23)cc1 [Example 266] | – |
| < 25 | < 25 | > 25 | – | – | – | NCCCNC(=O)c1cc(-c2c[nH]c3cc(F)ccc23)nc2cc(F)ccc12 [Example 495] | – |
| < 25 | < 25 | > 25 | – | – | – | COc1ccc2[nH]c(C)c(-c3ccc4cccc(C)c4n3)c2c1 [Example 424] | – |
| – | – | – | < 7 | < 7 | < 7 | Cn1cc(-c2cc(C(=O)NCCN)c3cc(Cl)ccc3n2)c2cc(Br)ccc21 [Example 370] | – |
| – | – | – | > 25 | > 25 | > 25 | NCc1cccc(CNC(=O)c2cc(-c3cc4cc(Cl)ccc4[nH]3)nc3cc(I)ccc23)c1 [Example 311] | – |
| – | – | – | < 7 | < 7 | < 7 | CN(C)CCNCC#Cc1ccc2nc(-c3cn(C)c4ccc(Br)cc34)cc(C(=O)NCc3ccc(CN)cc3)c2c1 [Example 392] | – |

From patent US6376670B1, “Quinoline-indole antimicrobial agents, uses and compositions related thereto” (Sepracor Inc., priority 1997, dated 2002)
